The values below come from patent publication US20240101564A1, “SALTS OF A PI3Kdelta INHIBITOR, CRYSTALLINE FORMS, METHODS OF PREPARATION, AND USES THEREFORE” (BeiGene Switzerland GmbH, priority 2021, published 2024).

The nature of data set [1]: solid-state stability tests (HPLC and XRPD after storage for one week). It is filed as physicochemical. To be noted: for HPLC (area %), One week / XRPD form after storage (form change) / difference of HPLC purity after storage: 25° C./60% RH and 40° C./75% RH, one week. As for the experimental part: Fumarate Type D and Type F were further evaluated by solid-state stability tests under 25° C./60% RH and 40° C./75% RH for one week.
In the experiments, about 15 mg of solids was added into an HPLC vial, which was then sealed with parafilm and pricked with 10 holes. Place the vial under corresponding condition and test the solids by HPLC and XRPD after one week.

The nature of data set [2]: long-term stability, 3-month experiment. It is filed as physicochemical.
Data set [3] in a line: pharmacokinetic properties of different salts in Sprague-Dawley rats after oral administration. It is filed as in vivo. As to conditions: male SD rats, single oral 10 mg·kg^−1 (as free base), 0.5% MC, fasted. As for the experimental part: The oral dosing solution was prepared as follows: […] of a test compound was weighed and dispersed in 10 mL of 0.5% methyl cellulose (MC). The final concentration of the test compound is 1 mg·mL^−1 (Calculated by free freebase).
Male Sprague-Dawley rats (also summarized in Table 27) were housed in solid bottom polypropylene cages with sterilized bedding and receive sterilized diet and sterilized water. The room was controlled and monitored for humidity (targeted mean range 40% to 70%) and temperature (targeted mean range 18° C. to 26° C.) with 10 to 20 air changes/hour. The light cycle was maintained at 12-h light and 12-h dark. Only animals that appeared to be healthy were selected for this study based on overall health, body weight, or other relevant information.
The male Sprague-Dawley rats were fasted overnight with free access to drinking water prior to treatment. On day 1, the animals were weighed and actual dose volume for each animal was calculated using the formula below: […]
Three rats for each group were given a single oral dose of 10 mg·kg^−1. The dosing solutions were freshly prepared prior to dose administration. The actual body weights and actual volume injected were recorded accordingly. Four hours after dosing, the rats were allowed to intake food.
Blood samples (˜150 μL) were collected at different times from the jugular vein catheter into EDTA-K2 coated tubes. Whole blood was processed by centrifugation at 3000 g for 10 min. Plasma samples were collected and kept at −80° C. freezer prior to analysis. The blood sampling time was recorded accordingly.
The dose samples of PO were diluted with MeOH:H2O (4:1, v/v) to achieve the concentration of 2 μg·mL^−1, respectively. Then, 2.5 μL of the diluted samples were added with 47.5 μL blank plasma, and then were handled as the plasma sample procedure. An aliquot of 10 μL of the mixture was injected into the LC-MS/MS system.

The nature of data set [4]: DVS (water sorption) test of fumarate crystal forms. As to conditions: for water uptake in DVS: humidity increased. Format: physicochemical. As for the experimental part:
DVS testing on fumarate Type A was performed starting from 25° C./70% RH.
DVS test on Type D was started at 25° C./60% RH to avoid any unnecessary form change for the starting form. […] Thus, fumarate Type D was speculated to be stable lower than 60% RH.
DVS testing on fumarate Type F was started at 25° C./80% RH to avoid any unnecessary form change for the starting form.

Another data set deals with PI3Kδ (Homo sapiens, UniProt O00329). The data set is described as follows: PI3Kδ inhibition in biochemical and cellular assays.
The subject of a further data set is cancer cell lines. The data set is described as follows: cellular growth of cancer cell lines in vitro. Format: cell-based. As to conditions: several cancer cell lines in vitro.
The subject of a further data set is tumor xenografts. The data set is described as follows: tumor xenografts engrafted subcutaneously or systemically in mice. As to conditions: xenografts subcutaneous or systemic in mice. Format: in vivo.

As a reminder, the Cmax is the peak of the concentration-time curve.

Chain of PI3Kδ (O00329 whole entry, species assumed): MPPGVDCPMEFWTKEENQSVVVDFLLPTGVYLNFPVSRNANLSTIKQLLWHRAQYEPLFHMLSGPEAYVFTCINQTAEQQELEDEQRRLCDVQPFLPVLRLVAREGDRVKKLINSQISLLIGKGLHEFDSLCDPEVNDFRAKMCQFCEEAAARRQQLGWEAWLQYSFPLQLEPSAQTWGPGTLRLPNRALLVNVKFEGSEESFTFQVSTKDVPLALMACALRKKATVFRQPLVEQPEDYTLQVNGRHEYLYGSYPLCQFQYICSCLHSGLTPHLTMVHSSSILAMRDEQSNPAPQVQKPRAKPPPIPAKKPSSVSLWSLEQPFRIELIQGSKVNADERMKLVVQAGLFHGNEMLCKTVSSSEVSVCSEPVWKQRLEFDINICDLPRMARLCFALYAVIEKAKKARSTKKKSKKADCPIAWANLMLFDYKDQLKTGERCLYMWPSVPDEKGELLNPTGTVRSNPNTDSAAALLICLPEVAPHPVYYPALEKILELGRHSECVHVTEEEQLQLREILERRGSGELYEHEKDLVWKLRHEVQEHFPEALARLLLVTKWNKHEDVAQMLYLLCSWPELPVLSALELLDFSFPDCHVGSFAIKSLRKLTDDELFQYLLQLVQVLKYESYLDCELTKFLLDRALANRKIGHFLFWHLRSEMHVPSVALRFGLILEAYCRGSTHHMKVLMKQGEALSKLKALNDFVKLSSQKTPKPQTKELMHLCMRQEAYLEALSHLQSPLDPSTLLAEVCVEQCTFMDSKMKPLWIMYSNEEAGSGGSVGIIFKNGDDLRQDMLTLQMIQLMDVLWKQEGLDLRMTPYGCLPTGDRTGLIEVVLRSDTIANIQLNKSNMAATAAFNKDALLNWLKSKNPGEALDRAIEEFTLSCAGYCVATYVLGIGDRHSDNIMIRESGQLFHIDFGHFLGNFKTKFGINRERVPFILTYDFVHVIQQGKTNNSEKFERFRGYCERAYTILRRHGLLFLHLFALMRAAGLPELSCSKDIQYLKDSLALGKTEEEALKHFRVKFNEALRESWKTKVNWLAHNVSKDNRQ
Chain of PI3Kδ (P27986 whole entry partner, species assumed): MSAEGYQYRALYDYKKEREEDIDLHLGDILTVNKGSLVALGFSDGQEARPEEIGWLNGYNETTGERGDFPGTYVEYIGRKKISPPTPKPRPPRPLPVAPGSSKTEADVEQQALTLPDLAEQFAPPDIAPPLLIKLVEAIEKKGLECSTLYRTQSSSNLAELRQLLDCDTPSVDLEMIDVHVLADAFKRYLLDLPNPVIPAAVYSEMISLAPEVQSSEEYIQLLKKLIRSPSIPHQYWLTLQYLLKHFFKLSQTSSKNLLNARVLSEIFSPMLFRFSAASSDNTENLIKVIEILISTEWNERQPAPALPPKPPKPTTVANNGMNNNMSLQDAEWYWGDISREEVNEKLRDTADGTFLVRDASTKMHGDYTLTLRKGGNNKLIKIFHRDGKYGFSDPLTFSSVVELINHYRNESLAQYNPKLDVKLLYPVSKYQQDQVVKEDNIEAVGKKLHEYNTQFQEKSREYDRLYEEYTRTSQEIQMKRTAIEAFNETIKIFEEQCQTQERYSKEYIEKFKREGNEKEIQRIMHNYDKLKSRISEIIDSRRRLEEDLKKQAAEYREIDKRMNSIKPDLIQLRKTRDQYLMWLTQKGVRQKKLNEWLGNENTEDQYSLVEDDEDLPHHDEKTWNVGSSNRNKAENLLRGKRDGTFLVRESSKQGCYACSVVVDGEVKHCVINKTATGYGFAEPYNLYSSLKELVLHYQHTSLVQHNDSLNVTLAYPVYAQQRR

Consider `Cc1nc([C@@H](C)c2cc(Cl)c(F)c(C(=O)NCCN3CCN(C)CC3)c2OC(C)C)n2ccnc(N)c12.O=C(O)/C=C/C(=O)O` [Fumarate Type D], for which, in data set [1], the “HPLC (area %), One week” value was determined as 99.9 area %; the “XRPD form after storage (form change)” value is “Type D”; the “difference of HPLC purity after storage” value is “no obvious difference of HPLC purity”. Moreover, the “XRPD form after storage (form change)” value in data set [1] (listed as fumarate Type D) is on record as “no form change”. Besides, in data set [1] (25° C./60% RH for 1 week), the “HPLC Area (%), RRT 1.00” value came to 99.92%; the “HPLC Area (%), RRT 1.08” value is 0.02%; the “HPLC Area (%), RRT 1.13” value came out at 0.06%. Moreover, in data set [1] (40° C./75% RH for 1 week), the “HPLC Area (%), RRT 1.00” value was determined as 99.90%; the “HPLC Area (%), RRT 1.08” value is 0.03%; the “HPLC Area (%), RRT 1.13” value is 0.07%. In data set [1] (Initial), the “HPLC (area %), Initial” value was determined as 99.9 area %; the “HPLC Area (%), RRT 1.00” value turned out to be 99.92%; the “HPLC Area (%), RRT 1.08” value stood at 0.03%; the “HPLC Area (%), RRT 1.13” value amounted to 0.05%. The long-term stability entry in data set [2] is recorded as “excellent long-term stability”. In data set [3], the AUC0-inf came out at 356 ng·h/mL, the AUC0-t turned out to be 210 ng·h/mL, the Cmax was 48.3 ng/mL and the “F % (n = 3)” value stood at 13.6%. In data set [3], the Kel came to 0.0687 h⁻¹, the t1/2 is reported as 11 h and the tmax came to 2.45 h. Further, the “humidity below which the form is speculated to be stable” value in data set [4] (from DVS, 25° C.) is listed as “lower than 60 % RH”. Besides, in data set [4] (started at 25° C./60% RH, 60% to 0% RH, then 0% to 70% RH), the “mass change in DVS” value is listed as around 1.6%.

As to `Cc1nc([C@@H](C)c2cc(Cl)c(F)c(C(=O)NCCN3CCN(C)CC3)c2OC(C)C)n2ccnc(N)c12.O=C(O)/C=C/C(=O)O` [Fumarate Type F], in data set [1], the “HPLC (area %), One week” value is 99.9 area %; the “XRPD form after storage (form change)” value is reported as “Type F”; the “difference of HPLC purity after storage” value was “no obvious difference of HPLC purity”. Further, the “XRPD form after storage (form change)” value in data set [1] (listed as fumarate Type F) is reported as “no form change”. In addition, in data set [1] (25° C./60% RH for 1 week), the “HPLC Area (%), RRT 1.00” value is given as 99.88%; the “HPLC Area (%), RRT 1.06” value was found to be 0.05%; the “HPLC Area (%), RRT 1.08” value came to 0.02%; the “HPLC Area (%), RRT 1.13” value stood at 0.05%. Also, in data set [1] (40° C./75% RH for 1 week), the “HPLC Area (%), RRT 1.00” value turned out to be 99.91%; the “HPLC Area (%), RRT 1.08” value is reported as 0.03%; the “HPLC Area (%), RRT 1.13” value worked out at 0.06%. Further, in data set [1] (Initial), the “HPLC (area %), Initial” value was 99.9 area %; the “HPLC Area (%), RRT 1.00” value was 99.95%; the “HPLC Area (%), RRT 1.13” value came to 0.05%. For the same molecule, the “water uptake in DVS” value in data set [4] (started at 25° C./80% RH) was around 17%.

For `Cc1nc([C@@H](C)c2cc(Cl)c(F)c(C(=O)NCCN3CCN(C)CC3)c2OC(C)C)n2ccnc(N)c12.Cc1nc([C@@H](C)c2cc(Cl)c(F)c(C(=O)NCCN3CCN(C)CC3)c2OC(C)C)n2ccnc(N)c12.O=C(O)C(O)C(O)C(=O)O.O=C(O)C(O)C(O)C(=O)O.O=C(O)C(O)C(O)C(=O)O` [D-Tartarate (acid/base = 1.5:1)], in data set [3], the AUC0-inf was 147.7 ng·h/mL, the AUC0-t was 54.9 ng·h/mL, the Cmax was 14.8 ng/mL and the “F % (n = 3)” value was 3.4%. Further, in data set [3], the Kel was found to be 0.06 h⁻¹, the t1/2 worked out at 12 h and the tmax is 2.7 h.

In the case of `Cc1nc([C@@H](C)c2cc(Cl)c(F)c(C(=O)NCCN3CCN(C)CC3)c2OC(C)C)n2ccnc(N)c12.O=C(O)/C=C/C(=O)O` [Fumarate Type A], the “water uptake in DVS” value in data set [4] (started from 25° C./70% RH) is around 21%.

As to `Cc1nc([C@@H](C)c2cc(Cl)c(F)c(C(=O)NCCN3CCN(C)CC3)c2OC(C)C)n2ccnc(N)c12` [Compound A, (S)-3-(1-(8-amino-1-methylimidazo[1,5-a]pyrazin-3-yl)ethyl)-5-chloro-6-fluoro-2-isopropoxy-N-(2-(4-methylpiperazin-1-yl)ethyl)benzamide], the “inhibition of PI3Kδ” value at PI3Kδ is “potent and selective inhibitor”. Moreover, the “inhibition of cellular growth” value in the data set on cancer cell lines is listed as “inhibits cellular growth”. The antitumor effects result with tumor xenografts is “dose-dependent antitumor effects”.
